pIC50: −log10 of the molar value. Read-outs that look alike come from different tables or passages of the source.
Assays:
MCF7 = assay: Cytotoxicity assay (cell titer-glo and calcein AM), MCF7
Hep3B = assay: Cytotoxicity assay (cell titer-glo and calcein AM), Hep3B; details: Hep 3B, % error in parentheses
A549 = assay: Cytotoxicity assay (cell titer-glo and calcein AM), A549; details: A549, % error in parentheses
[1] = test system: mouse mammary normal epithelial control cell line; assay: Cytotoxicity assay, normal control cell line
SF-268 = assay: Cytotoxicity assay (cell titer-glo and calcein AM), SF-268; details: SF-268, % error in parentheses
ADR-RES = assay: Cytotoxicity assay (cell titer-glo and calcein AM), ADR-RES; details: NCI/ADR RES, % error in parentheses
SK-OV-3 = assay: Cytotoxicity assay (cell titer-glo and calcein AM), SK-OV-3; details: SK-OV-3, % error in parentheses
Du145 = assay: Cytotoxicity assay (cell titer-glo and calcein AM), Du145; details: Du145, % error in parentheses
NCI-H460 = assay: Cytotoxicity assay (cell titer-glo and calcein AM), NCI-H460; details: NCI-H460, % error in parentheses
[2] = read-out: Cytotoxicity IC50, MCF7, CTG, CTG (cell titer-glo) readout, % error in parentheses
[3] = read-out: Cytotoxicity IC50, MCF7, calcein, calcein AM readout, % error in parentheses
[4] = read-out: Cytotoxicity IC50, Hep 3B, CTG, CTG (cell titer-glo) readout
[5] = read-out: Cytotoxicity IC50, Hep 3B, calcein, calcein AM readout
[6] = read-out: Cytotoxicity IC50, A549, CTG, CTG (cell titer-glo) readout
[7] = read-out: Cytotoxicity IC50, A549, calcein, calcein AM readout
[8] = read-out: Cytotoxicity IC50, NmuMG, CTG, CTG (cell titer-glo) readout, % error in parentheses
[9] = read-out: Cytotoxicity IC50, NmuMG, calcein, calcein AM readout, % error in parentheses
[10] = read-out: Cytotoxicity IC50, SF-268, CTG, CTG (cell titer-glo) readout
[11] = read-out: Cytotoxicity IC50, SF-268, calcein, calcein AM readout
[12] = read-out: Cytotoxicity IC50, NCI/ADR RES, CTG, CTG (cell titer-glo) readout
[13] = read-out: Cytotoxicity IC50, NCI/ADR RES, calcein, calcein AM readout
[14] = read-out: Cytotoxicity IC50, SK-OV-3, CTG, CTG (cell titer-glo) readout
[15] = read-out: Cytotoxicity IC50, SK-OV-3, calcein, calcein AM readout
[16] = read-out: Cytotoxicity IC50, Du145, CTG, CTG (cell titer-glo) readout
[17] = read-out: Cytotoxicity IC50, Du145, calcein, calcein AM readout
[18] = read-out: Cytotoxicity IC50, NCI-H460, CTG, CTG (cell titer-glo) readout
[19] = read-out: Cytotoxicity IC50, NCI-H460, calcein, calcein AM readout

Compound | pIC50 (MCF7; [2]) | pIC50 (MCF7; [3]) | pIC50 (Hep3B; [4]) | pIC50 (Hep3B; [5]) | pIC50 (A549; [6]) | pIC50 (A549; [7]) | pIC50 [1, 8] | pIC50 [1, 9] | pIC50 (SF-268; [10]) | pIC50 (SF-268; [11]) | pIC50 (ADR-RES; [12]) | pIC50 (ADR-RES; [13]) | pIC50 (SK-OV-3; [14]) | pIC50 (SK-OV-3; [15]) | pIC50 (Du145; [16]) | pIC50 (Du145; [17]) | pIC50 (NCI-H460; [18]) | pIC50 (NCI-H460; [19])
COc1cc2c(c(OC)c1OC)-c1ccc(OC)c(=O)cc1[C@@H](NC(=O)CN(OC)[C@@H]1O[C@H](C)[C@@H](O)[C@H](O)[C@H]1O)CC2 [Col2, 6-deoxy-D-glucoside] | 5.31 | 5.32 | < 5.00 | < 5.00 | 5.06 | 5.10 | < 5.00 | < 5.00 | 5.07 | < 5.00 | < 5.00 | < 5.00 | 5.01 | < 5.00 | < 5.00 | < 5.11 | 5.14 | 5.27
mycaroside [Col49] | 5.36 | 5.28 | 5.01 | < 5.00 | < 5.00 | < 5.00 | < 5.00 | 5.05 | 5.00 | 5.10 | 5.27 | < 5.00 | < 5.00 | < 5.00 | 5.28 | 5.07 | ≤ 5.00 | 5.03
CCCCCCCCCC(=O)NC[C@H]1O[C@@H](N(CC(=O)N[C@H]2CCc3cc(OC)c(OC)c(OC)c3-c3ccc(OC)c(=O)cc32)OC)[C@H](O)[C@@H](O)[C@@H]1O [Col59, 6-deoxy-6-N-decanoyl-D-glucosaminoside] | 5.26 | 5.21 | 5.24 | 5.13 | 5.09 | < 5.00 | < 5.00 | 5.07 | 5.26 | 5.03 | 5.29 | 5.10 | 5.29 | 5.15 | 5.28 | 5.15 | 5.31 | 5.28
COc1cc2c(c(OC)c1OC)-c1ccc(OC)c(=O)cc1[C@@H](NC(=O)CN(OC)[C@@H]1O[C@H](CN=[N+]=[N-])[C@H](O)[C@H](O)[C@H]1O)CC2 [Col43, 6-deoxy-6-azido-D-galactoside] | 5.31 | 5.43 | 5.28 | 5.41 | < 5.00 | < 5.00 | 5.42 | 5.41 | 5.29 | 5.07 | 5.30 | 5.60 | < 5.00 | 5.24 | 5.31 | 5.38 | 5.30 | 5.63
COc1cc2c(c(OC)c1OC)-c1ccc(OC)c(=O)cc1[C@@H](NC(=O)CN(OC)[C@@H]1O[C@H](CO)[C@@H](O)[C@H](F)[C@H]1O)CC2 [Col33, 3-fluoro-3-deoxy-D-glucoside] | 5.18 | 5.21 | 5.57 | 5.70 | 5.69 | 5.73 | 5.23 | < 5.00 | 6.07 | 5.63 | < 5.00 | < 5.00 | 5.90 | 5.72 | 5.02 | 5.26 | 5.36 | < 5.00
CCCCCCCCCC(=O)N[C@@H]1[C@@H](O)[C@H](N(CC(=O)N[C@H]2CCc3cc(OC)c(OC)c(OC)c3-c3ccc(OC)c(=O)cc32)OC)O[C@H](CO)[C@H]1O [Col60, 3-deoxy-3-N-decanoyl-D-glucosaminoside] | 5.47 | 5.52 | 5.30 | < 5.00 | < 5.00 | < 5.00 | 5.08 | 5.22 | 5.30 | 5.38 | 5.30 | 5.33 | 5.36 | 5.38 | 5.32 | 5.21 | 5.40 | 5.23
COc1cc2c(c(OC)c1OC)-c1ccc(OC)c(=O)cc1[C@@H](NC(=O)CN(OC)[C@@H]1OC[C@@H](O)[C@H](O)[C@H]1O)CC2 [Col4, D-xyloside] | < 5.00 | < 5.00 | < 5.00 | < 5.47 | < 5.00 | < 5.00 | < 5.00 | < 5.00 | 5.08 | 5.05 | < 5.00 | < 5.00 | < 5.00 | < 5.00 | < 5.00 | < 5.00 | < 5.00 | < 5.00
COc1cc2c(c(OC)c1OC)-c1ccc(OC)c(=O)cc1[C@@H](NC(=O)CN(OC)[C@@H]1OC[C@@H](O)[C@@H](O)[C@H]1O)CC2 [Col5, D-riboside] | 5.55 | 5.54 | 5.01 | 5.19 | < 5.00 | < 5.00 | < 5.00 | < 5.00 | 5.30 | 5.34 | 5.32 | 5.30 | < 5.00 | < 5.00 | < 5.00 | 5.17 | 5.30 | 5.24
COc1cc2c(c(OC)c1OC)-c1ccc(OC)c(=O)cc1[C@@H](NC(=O)CN(OC)[C@@H]1O[C@H](CO)[C@H](O)[C@H](O)[C@H]1NC(C)=O)CC2 [Col28, N-acetyl-D-galactosaminoside] | 5.31 | 5.18 | – | < 5.00 | < 5.00 | < 5.00 | < 5.00 | 5.02 | 5.24 | 5.45 | 5.00 | < 5.00 | 5.29 | 5.14 | < 5.00 | < 5.00 | 5.01 | < 5.00

— patent US20130012466A1 (priority 2006, published 2013)
